In ChEMBL document CHEMBL3734751, “Discovery of novel, potent and low-toxicity angiotensin II receptor type 1 (AT1) blockers: Design, synthesis and biological evaluation of 6-substituted aminocarbonyl benzimidazoles with a chiral center” (Eur J Med Chem, 2015):
Changes are numbered by the printed parent chain. The source made the active and inactive calls. The rule behind the calls is not given here.

Legend:
Mus musculus [1] = assay: Renal toxicity in Kunming mouse assessed as serum urea level at 2 g/kg by automatic biochemical analyser (reference value: 9.95 +/- 1.39 mmol); assay type: organism-based; conditions: in vivo, 2000 mg/kg
[2] = biological target: T1, Type-1 angiotensin II receptor (Homo sapiens, UniProt P30556); assay: Displacement of [125I]Sar1Ile8-Ang2 from human AT1 receptor expressed in CHO-K1 cell membranes after 180 mins
T1 sequence (P30556 whole entry): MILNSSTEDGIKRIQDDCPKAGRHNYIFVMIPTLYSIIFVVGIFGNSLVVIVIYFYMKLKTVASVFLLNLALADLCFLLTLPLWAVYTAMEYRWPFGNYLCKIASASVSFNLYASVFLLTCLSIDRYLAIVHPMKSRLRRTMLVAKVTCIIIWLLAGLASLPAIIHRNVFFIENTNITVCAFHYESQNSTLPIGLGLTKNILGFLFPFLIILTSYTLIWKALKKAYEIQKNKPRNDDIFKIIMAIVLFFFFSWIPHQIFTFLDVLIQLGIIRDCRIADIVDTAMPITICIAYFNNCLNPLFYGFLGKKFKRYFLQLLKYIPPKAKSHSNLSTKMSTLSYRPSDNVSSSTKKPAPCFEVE

[3] = Mutagenicity in Kunming mouse bone marrow cells assessed as micronucleated polychromatic erythrocytes level at 1 g/kg by May-Grunwald-Giemsa staining-based microscopic analysis (reference value: 3.2 +/- 1.62 ); assay type: toxicity, cell-based, Bone marrow cell; conditions: in vivo, 1000 mg/kg
Rattus norvegicus [4] = assay: AUC in Sprague-Dawley rat at 3 mg/kg, iv by LC-MS/MS; assay type: ADME, organism-based; conditions: in vivo
[5] = biological target: T2, Type-1 angiotensin II receptor (Oryctolagus cuniculus, UniProt P34976); assay: Antagonist activity against AT1 receptor in Japanese White rabbit aortic strips assessed as reduction in angiotension-2-induced contractile response after 60 mins by Schild's plot analysis; conditions: read-out: pA2 (converted)
T2 sequence (P34976 whole entry): T1 sequence (P30556 whole entry) with I2M, V49A, I254V, I270V, R272H, R311K, T349S, A353V

[6] = Toxicity in Kunming mouse at 4 g/kg, po assessed as mortality after 2 weeks; assay type: organism-based; conditions: in vivo, 4000 mg/kg
Mus musculus [7] = assay: Hepatotoxicity in Kunming mouse assessed as serum AST level at 0.5 g/kg by automatic biochemical analyser (reference value: 133.44 +/- 25.05 U/T); assay type: toxicity, organism-based; conditions: in vivo, 500 mg/kg
Mus musculus [8] = assay: Renal toxicity in Kunming mouse assessed as serum creatinin level at 1 g/kg by automatic biochemical analyser (reference value: 13.78 +/- 2.64 umol/L); assay type: organism-based; conditions: in vivo, 1000 mg/kg
Rattus norvegicus [9] = assay: Antihypertensive activity in spontaneously hypertensive rat model assessed as decrease in heart rate at 30 mg/kg, po administered daily for 14 days and measured after 2 days of drug withdrawal by tail-cuff plethysmography; assay type: functional, organism-based
[10] = Mutagenicity in Kunming mouse bone marrow cells assessed as ratio of polychromatic erythrocyte level to norchromatic erythrocyte level at 1 g/kg by May-Grunwald-Giemsa staining-based microscopic analysis (reference value: 1.32 +/- 0.22 ); assay type: toxicity, cell-based, Bone marrow cell; conditions: in vivo, 1000 mg/kg
[11] = Mutagenicity in Kunming mouse bone marrow cells assessed as ratio of polychromatic erythrocyte level to norchromatic erythrocyte level at 0.5 g/kg by May-Grunwald-Giemsa staining-based microscopic analysis (reference value: 1.32 +/- 0.22 ); assay type: toxicity, cell-based, Bone marrow cell; conditions: in vivo, 500 mg/kg
[12] = Cmax in Sprague-Dawley rat at 30 mg/kg, po by LC-MS/MS; assay type: ADME, organism-based; parameters: dose 30 mg/kg, route oral; conditions: in vivo
[13] = Mutagenicity in Kunming mouse bone marrow cells assessed as micronucleated polychromatic erythrocytes level at 2 g/kg by May-Grunwald-Giemsan staining-based microscopic analysis (reference value: 3.2 +/- 1.62 ); assay type: toxicity, cell-based, Bone marrow cell; conditions: in vivo, 2000 mg/kg
Mus musculus [14] = assay: Renal toxicity in Kunming mouse assessed as serum urea level at 0.5 g/kg by automatic biochemical analyser (reference value: 9.95 +/- 1.39 mmol); assay type: organism-based; conditions: in vivo, 500 mg/kg
[15] = Toxicity in Kunming mouse at 5 g/kg, po assessed as mortality after 2 weeks; assay type: organism-based; conditions: in vivo, 5000 mg/kg
Mus musculus [16] = assay: Renal toxicity in Kunming mouse assessed as serum urea level at 1 g/kg by automatic biochemical analyser (reference value: 9.95 +/- 1.39 mmol); assay type: organism-based; conditions: in vivo, 1000 mg/kg
[17] = Toxicity in Kunming mouse at 2 g/kg, po assessed as mortality after 2 weeks; assay type: organism-based; conditions: in vivo, 2000 mg/kg
Rattus norvegicus [18] = assay: Antihypertensive activity in spontaneously hypertensive rat model assessed as decrease in heart rate at 30 mg/kg, po administered daily for 14 days by tail-cuff plethysmography; assay type: functional, organism-based
[19] = Tmax in Sprague-Dawley rat at 30 mg/kg, po by LC-MS/MS; assay type: ADME, organism-based; conditions: in vivo
[20] = Mutagenicity in Kunming mouse bone marrow cells assessed as ratio of polychromatic erythrocyte level to norchromatic erythrocyte level at 2 g/kg by May-Grunwald-Giemsa staining-based microscopic analysis (reference value: 1.32 +/- 0.22 ); assay type: toxicity, cell-based, Bone marrow cell; conditions: in vivo, 2000 mg/kg
Mus musculus [21] = assay: Hepatotoxicity in Kunming mouse assessed as serum ALT level at 2 g/kg by automatic biochemical analyser (reference value: 44.33 +/- 6.50 U/T); assay type: toxicity, organism-based; conditions: in vivo, 2000 mg/kg
Mus musculus [22] = assay: Hepatotoxicity in Kunming mouse assessed as serum AST level at 1 g/kg by automatic biochemical analyser (reference value: 133.44 +/- 25.05 U/T); assay type: toxicity, organism-based; conditions: in vivo, 1000 mg/kg
Rattus norvegicus [23] = assay: Antihypertensive activity in spontaneously hypertensive rat model assessed as decrease in systolic and diastolic blood pressure at 30 mg/kg, po administered daily for 14 days and measured after 2 days of drug withdrawal by tail-cuff plethysmography; assay type: functional, organism-based
[24] = Toxicity in Kunming mouse at 3 g/kg, po assessed as mortality after 2 weeks; assay type: organism-based; conditions: in vivo, 3000 mg/kg
[25] = Oral bioavailability in Sprague-Dawley rat at 30 mg/kg, by LC-MS/MS; assay type: ADME, organism-based; conditions: in vivo
[26] = Terminal half-life in Sprague-Dawley rat at 30 mg/kg, po by LC-MS/MS; assay type: ADME, organism-based; conditions: in vivo, read-out: beta t1/2 (converted)
[27] = Terminal half-life in Sprague-Dawley rat at 3 mg/kg, iv by LC-MS/MS; assay type: ADME, organism-based; conditions: in vivo, read-out: beta t1/2 (converted)
Rattus norvegicus [28] = assay: Antihypertensive activity in po dosed spontaneously hypertensive rat assessed as decrease in mean blood pressure by tail-cuff plethysmography; assay type: functional, organism-based
Mus musculus [29] = assay: Renal toxicity in Kunming mouse assessed as serum creatinin level at 0.5 g/kg by automatic biochemical analyser (reference value: 13.78 +/- 2.64 umol/L); assay type: organism-based; conditions: in vivo, 500 mg/kg
Mus musculus [30] = assay: Hepatotoxicity in Kunming mouse assessed as serum ALT level at 1 g/kg by automatic biochemical analyser (reference value: 44.33 +/- 6.50 U/T); assay type: toxicity, organism-based; conditions: in vivo, 1000 mg/kg
Rattus norvegicus [31] = assay: Antihypertensive activity in spontaneously hypertensive rat model assessed as decrease in systolic and diastolic blood pressure at 30 mg/kg, po administered daily for 14 days by tail-cuff plethysmography; assay type: functional, organism-based
[32] = AUC in Sprague-Dawley rat at 30 mg/kg, po by LC-MS/MS; assay type: ADME, organism-based; conditions: in vivo
[33] = Mutagenicity in Kunming mouse bone marrow cells assessed as micronucleated polychromatic erythrocytes level at 0.5 g/kg by May-Grunwald-Giemsa staining-based microscopic analysis (reference value: 3.2 +/- 1.62 ); assay type: toxicity, cell-based, Bone marrow cell; conditions: in vivo, 500 mg/kg
[34] = Toxicity in orally dosed Kunming mouse assessed as mortality after 2 weeks; assay type: organism-based; conditions: in vivo, po
Mus musculus [35] = assay: Hepatotoxicity in Kunming mouse assessed as serum AST level at 2 g/kg by automatic biochemical analyser (reference value: 133.44 +/- […] U/T); assay type: toxicity, organism-based; conditions: in vivo, 2000 mg/kg
Mus musculus [36] = assay: Renal toxicity in Kunming mouse assessed as serum creatinin level at 2 g/kg by automatic biochemical analyser (reference value: 13.78 +/- 2.64 umol/L); assay type: organism-based; conditions: in vivo, 2000 mg/kg
[37] = Volume of distribution at steady state in Sprague-Dawley rat at 3 mg/kg, iv by LC-MS/MS; assay type: ADME, organism-based; conditions: in vivo, read-out: Vdss
Mus musculus [38] = assay: Hepatotoxicity in Kunming mouse assessed as serum ALT level at 0.5 g/kg by automatic biochemical analyser (reference value: 44.33 +/- 6.50 U/T); assay type: toxicity, organism-based; conditions: in vivo, 500 mg/kg

CCCc1nc2c(C)cc(C(=O)NC[C@H](C)c3ccccc3)cc2n1Cc1ccc(-c2ccccc2-c2nnn[nH]2)cc1
Activity (Mus musculus [1]): 11.2 mM | IC50 [2]: 1.1 nM | Activity [3]: 3.8 | AUC (Rattus norvegicus [4]): 12200 ng·h/mL | Kb [5]: 1.78 nM | mortality at 336 h [6]: 50% | Activity (Mus musculus [7]): 126 U/L | Activity (Mus musculus [8]): 8.3 µmol/L | Activity (Rattus norvegicus [9]): Active | Ratio [10]: 1.28 | Ratio [11]: 1.34 | Cmax [12]: 14600 ng/mL | Activity [13]: 4.3 | Activity (Mus musculus [14]): 8.71 mM | mortality at 336 h [15]: 90% | Activity (Mus musculus [16]): 10 mM | mortality at 336 h [17]: 0% | Activity (Rattus norvegicus [18]): Active | Tmax [19]: 0.75 h | Ratio [20]: 1.64 | Activity (Mus musculus [21]): 91.4 U/L | Activity (Mus musculus [22]): 141 U/L | Activity (Rattus norvegicus [23]): Active | mortality at 336 h [24]: 30% | bioavailability [25]: 42% | half-life [26]: 13 h | half-life [27]: 12.6 h | Activity (Rattus norvegicus [28]): Dose-dependent effect | Activity (Mus musculus [29]): 10.3 µmol/L | Activity (Mus musculus [30]): 52.6 U/L | Activity (Rattus norvegicus [31]): Active | AUC [32]: 51500 ng·h/mL | Activity [33]: 3 | LD50 at 336 h [34]: 3640 mg/kg | Activity (Mus musculus [35]): 217 U/L | Activity (Mus musculus [36]): 6.14 µmol/L | Vd [37]: 11 L/kg | Activity (Mus musculus [38]): 42.7 U/L
